# Data as given in patent US8664257B2, “Oxygen-substituted 3-heteroaroylamino-propionic acid derivatives and their use as pharmaceuticals” (Sanofi, priority 2010, dated 2014).
# Biological target: T1, Recombinant human cathepsin A (Homo sapiens, UniProt P10619)
# T1 construct: Recombinant human cathepsin A (residues 29-480, with a C-terminal 10-His tag); 10-His (C); purchased R&D Systems 1049-SE
# T1 sequence (P10619 29-312 limits assumed): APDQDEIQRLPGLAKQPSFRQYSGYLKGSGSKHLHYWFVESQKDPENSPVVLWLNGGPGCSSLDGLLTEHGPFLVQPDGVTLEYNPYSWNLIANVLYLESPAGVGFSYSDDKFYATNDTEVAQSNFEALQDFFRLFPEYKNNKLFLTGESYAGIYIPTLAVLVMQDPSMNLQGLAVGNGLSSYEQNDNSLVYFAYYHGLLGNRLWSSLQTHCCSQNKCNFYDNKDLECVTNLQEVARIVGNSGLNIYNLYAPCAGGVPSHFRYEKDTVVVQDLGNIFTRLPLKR
# T1 sequence (P10619 327-480 limits assumed): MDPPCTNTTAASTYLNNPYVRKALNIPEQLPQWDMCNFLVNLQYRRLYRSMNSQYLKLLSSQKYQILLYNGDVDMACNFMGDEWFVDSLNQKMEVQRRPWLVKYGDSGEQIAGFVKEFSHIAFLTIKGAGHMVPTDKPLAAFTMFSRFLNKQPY
# Assay: Cathepsin A inhibitory activity
# Type: biochemical
# Conditions: read-out: Activity (2): Cathepsin A inhibitory activity, IC50 class
# Method in brief: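 Read-out was microfluidic separation of cleaved vs. uncleaved Bodipy FL-bradykinin (2 μM), giving turnover, % inhibition and IC50. Compound and 833 ng/ml enzyme met for 15 min RT in pH 5.5 MES/DTT before substrate (15 min RT). The 29-480 His-tagged human enzyme was first activated by cathepsin L, then E-64 (10 μM).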
row,Compound,IC50 [µM]
1,O=C(O)C[C@H](NC(=O)c1cc(O)n(-c2ccc(F)cc2)n1)c1c(F)cccc1F [Example 368],0.1 to 1
2,O=C(O)C[C@H](NC(=O)c1cc(O)n(-c2ccc(F)cc2)n1)c1ccc(Cl)cc1 [Example 369],0.1 to 1
3,O=C(O)C[C@H](NC(=O)c1cc(O)n(-c2ccc(F)cc2)n1)c1ccc(Cl)cc1Cl [Example 370],0.1 to 1
4,O=C(O)CC(NC(=O)c1cc(O)n(-c2ccc(F)cc2)n1)c1ccc(-c2ccc(F)cc2)cc1 (stereo not drawn) [Example 371],0.1 to 1
5,O=C(O)C[C@H](NC(=O)c1cc(O)n(-c2ccc(F)cc2)n1)c1cccnc1 [Example 372],1 to 30
6,COc1ccc(C(CC(=O)O)NC(=O)c2cc(O)n(-c3ccccc3)n2)c(C)c1 (stereo not drawn) [Example 373],0.1 to 1
7,COc1ccc([C@H](CC(=O)O)NC(=O)c2cc(O)n(-c3ccccc3)n2)cc1 [Example 374],0.1 to 1
8,COc1ccc(Cl)cc1C(CC(=O)O)NC(=O)c1cc(O)n(-c2ccccc2)n1 (stereo not drawn) [Example 375],0.1 to 1
9,Cc1cccc([C@H](CC(=O)O)NC(=O)c2cc(O)n(-c3ccccc3)n2)c1 [Example 376],0.1 to 1
10,Cc1cccc(C(CC(=O)O)NC(=O)c2cc(O)n(-c3ccccc3)n2)c1C (stereo not drawn) [Example 377],0.1 to 1
11,Cc1ccc(C)c(C(CC(=O)O)NC(=O)c2cc(O)n(-c3ccccc3)n2)c1 (stereo not drawn) [Example 378],0.1 to 1
12,COc1ccc(C(CC(=O)O)NC(=O)c2cc(O)n(-c3ccc(F)cc3F)n2)c(C)c1 (stereo not drawn) [Example 379],0.1 to 1
13,O=C(O)CC(NC(=O)c1cc(O)n(-c2ccc(F)cc2F)n1)c1cccc(Cl)c1 (stereo not drawn) [Example 380],0.1 to 1
14,N#Cc1cccc([C@H](CC(=O)O)NC(=O)c2cc(O)n(-c3ccc(F)cc3F)n2)c1 [Example 381],0.1 to 1
15,COc1ccc([C@H](CC(=O)O)NC(=O)c2cc(O)n(-c3ccc(F)cc3F)n2)cc1 [Example 382],0.1 to 1
16,COc1ccc(C(CC(=O)O)NC(=O)c2cc(O)n(-c3ccc(F)cc3F)n2)c(OC)c1 (stereo not drawn) [Example 383],0.1 to 1
17,O=C(O)CC(NC(=O)c1cc(O)n(-c2ccc(F)cc2F)n1)c1ccc(-c2cccc(F)c2)cc1 (stereo not drawn) [Example 384],0.1 to 1
18,"O=C(O)CC(NC(=O)c1cc(O)n(-c2ccc(F)cc2F)n1)c1cccc(C(F)(F)F)c1F (stereo not drawn) [Example 385, 3-{[1-(2,4-Difluoro-phenyl)-5-hydroxy-1H-pyrazole-3-carbonyl]-amino}-3-(2-fluoro-3-trifluoromethyl-phenyl)-propionic acid]",< 0.1
19,O=C(O)CC(NC(=O)c1cc(O)n(-c2ccc(F)cc2F)n1)c1cccc(Oc2ccc(Cl)cc2)c1 (stereo not drawn) [Example 386],0.1 to 1

row,Compound,IC50 [µM]
1,O=C(O)C[C@H](NC(=O)c1cc(O)n(-c2ccc(F)cc2F)n1)c1ccccc1F [Example 387],0.1 to 1
2,O=C(O)C[C@H](NC(=O)c1cc(O)n(-c2ccc(F)cc2F)n1)c1c(F)cccc1F [Example 388],0.1 to 1
3,O=C(O)C[C@H](NC(=O)c1cc(O)n(-c2ccc(F)cc2F)n1)c1cccnc1 [Example 389],1 to 30
4,COc1ccc([C@H](CC(=O)O)NC(=O)c2cc(O)n(-c3ccc(F)cc3F)n2)cn1 [Example 390],0.1 to 1
5,O=C(O)CC(NC(=O)c1cc(O)n(-c2ccccc2Cl)n1)c1cccc(Cl)c1 (stereo not drawn) [Example 391],0.1 to 1
6,COc1ccc([C@H](CC(=O)O)NC(=O)c2cc(O)n(-c3ccccc3Cl)n2)cc1 [Example 392],0.1 to 1
7,O=C(O)C[C@H](NC(=O)c1cc(O)n(-c2ccccc2Cl)n1)c1cccc(F)c1 [Example 393],0.1 to 1
8,COc1cccc([C@H](CC(=O)O)NC(=O)c2cc(O)n(-c3ccccc3Cl)n2)c1OC [Example 394],0.1 to 1
9,COc1ccc(C(CC(=O)O)NC(=O)c2cc(O)n(-c3ccccc3F)n2)c(C)c1 (stereo not drawn) [Example 395],0.1 to 1
10,O=C(O)CC(NC(=O)c1cc(O)n(-c2ccccc2F)n1)c1cccc(Cl)c1 (stereo not drawn) [Example 396],0.1 to 1
11,O=C(O)C[C@H](NC(=O)c1cc(O)n(-c2ccccc2F)n1)c1ccccc1Br [Example 397],< 0.1
12,COc1ccc([C@H](CC(=O)O)NC(=O)c2cc(O)n(-c3ccccc3F)n2)cc1 [Example 398],0.1 to 1
13,O=C(O)C[C@H](NC(=O)c1cc(O)n(-c2ccccc2F)n1)c1cccc(Cl)c1Cl [Example 399],< 0.1
14,O=C(O)C[C@H](NC(=O)c1cc(O)n(-c2ccccc2F)n1)c1cccc(F)c1 [Example 400],0.1 to 1
15,O=C(O)C[C@H](NC(=O)c1cc(O)n(-c2ccccc2F)n1)c1cccc(Cl)c1 [Example 401],0.1 to 1
16,O=C(O)CC(NC(=O)c1cc(O)n(-c2ccccc2F)n1)c1cccc(Cl)c1Cl (stereo not drawn) [Example 402],< 0.1
17,COc1cccc([C@H](CC(=O)O)NC(=O)c2cc(O)n(-c3ccccc3F)n2)c1OC [Example 403],0.1 to 1
18,Cc1cccc([C@H](CC(=O)O)NC(=O)c2cc(O)n(-c3ccccc3F)n2)c1 [Example 404],0.1 to 1

# Same assay, conditions: recombinant human cathepsin A 833 ng/ml, Bodipy FL-labeled bradykinin 2 μM, pH 5.5; read-out: CATH-A IC50
row,Compound,IC50 [µM]
1,"O=C(O)CC(NC(=O)c1cc(O)n(-c2ccc(F)cc2F)n1)c1cccc(C(F)(F)F)c1F (stereo not drawn) [Example 385, 3-{[1-(2,4-Difluoro-phenyl)-5-hydroxy-1H-pyrazole-3-carbonyl]-amino}-3-(2-fluoro-3-trifluoromethyl-phenyl)-propionic acid]",0.0607
2,"O=C(O)CC(NC(=O)c1cc(O)n(-c2cccc(Cl)c2)n1)c1cccc(C(F)(F)F)c1F (stereo not drawn) [Example 418, 3-{[1-(3-Chloro-phenyl)-5-hydroxy-1H-pyrazole-3-carbonyl]-amino}-3-(2-fluoro-3-trifluoromethyl-phenyl)-propionic acid]",5.29

# Same assay, conditions: recombinant human cathepsin A; read-out: Activity (2): Cathepsin A inhibitory activity, IC50 class
row,Compound,IC50 [µM]
1,Cc1cccc(C(CC(=O)O)NC(=O)c2cc(O)n(-c3ccccc3F)n2)c1C (stereo not drawn) [Example 405],< 0.1
2,Cc1ccc(C)c(C(CC(=O)O)NC(=O)c2cc(O)n(-c3ccccc3F)n2)c1 (stereo not drawn) [Example 406],0.1 to 1
3,O=C(O)CC(NC(=O)c1cc(O)n(-c2ccccc2F)n1)c1ccc(Cl)c(Cl)c1 (stereo not drawn) [Example 407],0.1 to 1
4,O=C(O)CC(NC(=O)c1cc(O)n(-c2cccc(Cl)c2)n1)c1cccc(Cl)c1 (stereo not drawn) [Example 408],0.1 to 1
5,COc1ccc([C@H](CC(=O)O)NC(=O)c2cc(O)n(-c3cccc(Cl)c3)n2)cc1 [Example 409],1 to 30
6,N#Cc1ccc([C@H](CC(=O)O)NC(=O)c2cc(O)n(-c3cccc(Cl)c3)n2)cc1 [Example 410],1 to 30
7,O=C(O)C[C@H](NC(=O)c1cc(O)n(-c2cccc(Cl)c2)n1)c1ccc(F)cc1 [Example 411],1 to 30
8,O=C(O)C[C@H](NC(=O)c1cc(O)n(-c2cccc(Cl)c2)n1)c1cccc(Cl)c1Cl [Example 412],1 to 30
9,COc1cccc([C@H](CC(=O)O)NC(=O)c2cc(O)n(-c3cccc(Cl)c3)n2)c1 [Example 413],1 to 30
10,O=C(O)C[C@H](NC(=O)c1cc(O)n(-c2cccc(Cl)c2)n1)c1cccc(F)c1 [Example 414],1 to 30
11,O=C(O)C[C@H](NC(=O)c1cc(O)n(-c2cccc(Cl)c2)n1)c1cccc(Cl)c1 [Example 415],0.1 to 1
12,COc1ccccc1[C@@H](NC(=O)c1cc(O)n(-c2cccc(Cl)c2)n1)[C@@H](O)C(=O)O [Example 416],1 to 30
13,COc1cccc([C@H](CC(=O)O)NC(=O)c2cc(O)n(-c3cccc(Cl)c3)n2)c1OC [Example 417],0.1 to 1
14,"O=C(O)CC(NC(=O)c1cc(O)n(-c2cccc(Cl)c2)n1)c1cccc(C(F)(F)F)c1F (stereo not drawn) [Example 418, 3-{[1-(3-Chloro-phenyl)-5-hydroxy-1H-pyrazole-3-carbonyl]-amino}-3-(2-fluoro-3-trifluoromethyl-phenyl)-propionic acid]",1 to 30
15,Cc1ccc(C(CC(=O)O)NC(=O)c2cc(O)n(-c3cccc(Cl)c3)n2)c(C)c1 (stereo not drawn) [Example 419],0.1 to 1
16,Cc1cc(F)ccc1C(CC(=O)O)NC(=O)c1cc(O)n(-c2cccc(Cl)c2)n1 (stereo not drawn) [Example 420],0.1 to 1
17,O=C(O)CC(NC(=O)c1cc(O)n(-c2cccc(Cl)c2)n1)c1ccc(-c2ccccc2)cc1 (stereo not drawn) [Example 421],0.1 to 1
18,O=C(O)C[C@H](NC(=O)c1cc(O)n(-c2cccc(Cl)c2)n1)c1ccccc1F [Example 422],0.1 to 1
19,COc1ccc([C@H](CC(=O)O)NC(=O)c2cc(O)n(-c3ccc(Cl)cc3)n2)cc1 [Example 423],1 to 30
20,COc1ccc(C(CC(=O)O)NC(=O)c2cc(O)n(-c3ccc(Cl)cc3)n2)c(Cl)c1 (stereo not drawn) [Example 424],0.1 to 1
21,O=C(O)CC(NC(=O)c1cc(O)n(-c2ccc(Cl)cc2)n1)c1ccc(-c2ccc(F)cc2)cc1 (stereo not drawn) [Example 425],1 to 30
22,COc1ccc(C(CC(=O)O)NC(=O)c2cc(O)n(-c3cccc(F)c3)n2)c(C)c1 (stereo not drawn) [Example 426],0.1 to 1
23,COc1ccc([C@H](CC(=O)O)NC(=O)c2cc(O)n(-c3cccc(F)c3)n2)cc1 [Example 427],1 to 30
24,O=C(O)C[C@H](NC(=O)c1cc(O)n(-c2cccc(F)c2)n1)c1cccc(Cl)c1Cl [Example 428],0.1 to 1
25,COc1cccc([C@H](CC(=O)O)NC(=O)c2cc(O)n(-c3cccc(F)c3)n2)c1 [Example 429],0.1 to 1
26,O=C(O)C[C@H](NC(=O)c1cc(O)n(-c2cccc(F)c2)n1)c1cccc(Cl)c1 [Example 430],0.1 to 1
27,COc1cccc([C@H](CC(=O)O)NC(=O)c2cc(O)n(-c3cccc(F)c3)n2)c1OC [Example 431],0.1 to 1
28,Cc1cccc(C(CC(=O)O)NC(=O)c2cc(O)n(-c3cccc(F)c3)n2)c1C (stereo not drawn) [Example 432],0.1 to 1
29,O=C(O)C[C@H](NC(=O)c1cc(O)n(-c2cccc(F)c2)n1)c1ccccc1F [Example 433],0.1 to 1
30,O=C(O)C[C@H](NC(=O)c1cc(O)n(-c2cccc(F)c2)n1)c1c(F)cccc1F [Example 434],0.1 to 1
